Laboratory results taken from PubChem BioAssay (NCI).
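Grown in 96-well plates, cells were treated for 48 hours with each compound at five concentrations. Insufficient inhibition: endpoint recorded as highest concentration tested. GI50 is the concentration that inhibits growth by half. Definition used: TGI = concentration required for complete inhibition of growth.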

Experiments:
Test in all cases: NCI-60 cell line screen, 48 h
[1] = tested on: BT-549 breast
[2] = tested on: SR leukemia
[3] = tested on: 786-0 renal
[4] = tested on: HS 578T breast
[5] = tested on: NCI/ADR-RES ovarian
[6] = tested on: RPMI-8226 leukemia
[7] = tested on: SNB-75 CNS
[8] = tested on: SW-620 colon
[9] = tested on: SK-MEL-28 melanoma
[10] = tested on: A498 renal
[11] = tested on: UACC-62 melanoma
[12] = tested on: M14 melanoma
[13] = tested on: SK-OV-3 ovarian
[14] = tested on: MDA-MB-231 breast
[15] = tested on: UACC-257 melanoma
[16] = tested on: RXF 393 renal
[17] = tested on: DU-145 prostate
[18] = tested on: MOLT-4 leukemia
[19] = tested on: MDA-MB-468 breast
[20] = tested on: NCI-H226 lung
[21] = tested on: HOP-92 NSCLC
[22] = tested on: SF-295 CNS
[23] = tested on: MDA-MB-435
[24] = tested on: MALME-3M melanoma
[25] = tested on: HCT-116 colon
[26] = tested on: LOX IMVI melanoma
[27] = tested on: NCI-H460 lung
[28] = tested on: K-562 leukemia
[29] = tested on: NCI-H522 lung
[30] = tested on: SF-268 CNS

CN1CCN(Cc2ccc(NC(=O)c3cncc(C#Cc4cnc5ccc(N[C@@H]6CCOC6)nn45)c3)cc2C(F)(F)F)CC1 showed a TGI [1] of 631 nM, a GI50 [2] of 99.2 nM and a TGI [2] of 7320 nM. The GI50 [3] was 235 nM, the TGI [3] was 712 nM and the GI50 [4] was 28.8 nM. For the same compound, the TGI [4] was 398 nM, the GI50 [5] was 2780 nM and the TGI [5] was 17100 nM. It also gave a GI50 [6] of 201 nM, a TGI [6] of 1570 nM and a GI50 [7] of 126 nM. The TGI [7] was 300 nM, the GI50 [8] was 94.4 nM and the TGI [8] was 603 nM. It also gave a GI50 [9] of 193 nM, a TGI [9] of 629 nM and a GI50 [10] of 269 nM. It also gave a TGI [10] of 475 nM, a GI50 [11] of 156 nM and a TGI [11] of 539 nM. The GI50 [12] was 78.4 nM, the TGI [12] was 245 nM and the GI50 [13] was 274 nM. The TGI [13] was 713 nM, the GI50 [14] was 42.3 nM and the TGI [14] was 289 nM. It also gave a GI50 [15] of 361 nM, a TGI [15] of 4380 nM and a GI50 [16] of 71.3 nM. For the same compound, the TGI [16] was 217 nM, the GI50 [17] was 148 nM and the TGI [17] was 557 nM. The GI50 [18] was 26.6 nM, the TGI [18] was 919 nM and the GI50 [19] was 60 nM. It also gave a TGI [19] of 194 nM, a GI50 [20] of 14.4 nM and a TGI [20] of 218 nM. The GI50 [21] was 27.7 nM, the TGI [21] was 133 nM and the GI50 [22] was 88.8 nM. The TGI [22] was 587 nM, the GI50 [23] was 113 nM and the TGI [23] was 338 nM. For the same compound, the GI50 [24] was 89.7 nM, the TGI [24] was 299 nM and the GI50 [25] was 48.6 nM. It also gave a TGI [25] of 640 nM, a GI50 [26] of 55.4 nM and a TGI [26] of 187 nM. The GI50 [27] was 104 nM, the TGI [27] was 374 nM and the GI50 [28] was less than 9.7 nM. The TGI [28] was 10100 nM, the GI50 [29] was 122 nM and the TGI [29] was 280 nM. For the same compound, the GI50 [30] was 122 nM and the TGI [30] was 377 nM.
